In US8518892B2, “Methods to treat symptoms of pathophysiology related to body mass” (Board of Supervisors of Louisiana State University and …, priority 2005, dated 2013):

Key:
[1] = system: phosphorylation of Erk1 in fully differentiated 3T3-L1 adipocytes; experiment: Erk phosphorylation in 3T3-L1 adipocytes; format: cell-based; conditions: 1 μg/ml Enho1^34-76, 15 minutes after application
Protocol: FIG. 11A illustrates the increase in Erk phosphorylation in 3T3-L1 adipocytes 15 minutes after the application of the secreted portion of protein Enho1 (Enho1^34-76; SEQ ID NO:10).
(§1) An experiment was conducted to test the use of a recombinant or synthetic forms of the short secreted polypeptide Enho1^34-76 (SEQ ID NO:10). A study was conducted where the response of adipocytes and hepatocytes, two potential sites of Enho1 action, to synthetic Enho1^34-76 was analyzed with changes in extracellular regulated kinase (ERK) as the measured response. ERK1/2 and p38α are important in the regulation of lipolysis and thermogenesis in adipocytes.
(§2) In addition, a shorter, second peptide was synthesized using amino acids 39 through 76 of SEQ ID NO:2, and called “Enho1^39-76” (SEQ ID NO:11).

[2] = system: phosphorylation of Erk1 in HepG2 cells; experiment: Erk phosphorylation in HepG2 cells; format: cell-based; conditions: 1 μg/ml Enho1^34-76, 15 minutes after application
Protocol: FIG. 11B illustrates the increase in Erk phosphorylation in HepG2 hepatocytes 15 minutes after the application of the secreted protein Enho1 (Enho1^34-76; SEQ ID NO:10).
as §1, §2

Lep^ob/Lep^ob mice = experiment: Leptin treatment of Lep^ob/Lep^ob mice, hepatic AK009710 (Enho1) mRNA by RealTime PCR; format: in vivo, mouse; conditions: liver of Lep^ob/Lep^ob mice, 4 injections of 0.5 mg/g leptin over 2 days, vs saline
Protocol: FIG. 3C illustrates the amount of hepatic AK009710 mRNA expression (given as a percent of expression with saline) in leptin-deficient Lep^ob/Lep^ob mice injected 4 times over 2 days with either saline or leptin (0.5 mg/g).
Quantitative RealTime PCR confirmed the microarray data showing a tendency for a modest reduction in the expression of AK009710 in liver of Mc3rKO (FIG. 3A). […] (FIG. 3C). […] Moreover, AK009710 expression correlated negatively with fasting glucose in diet-induced obese B6 mice (n=13, R^2=0.67, P<0.001) (data not shown).
Oligonucleotide primers targeted to AK009710 mRNA were utilized to measure AK009710 gene expression in liver cDNA from various mouse models of obesity and insulin resistance. Sequences of primers were: sense 5-[…]-3′ (SEQ ID NO:3), antisense 5′-[…]-3′ (SEQ ID NO:4), probe 5′-6FAM-[…]-BHQ-3′ (SEQ ID NO:5). In agreement with the initial microarray result, AK009710 mRNA was down regulated in the liver of Mc3r−/− mice compared to WT mice (by 55%, p<0.05; FIG. 3A). Next was examined the AK009710 liver mRNA expression in two other models of obesity: Mc4r−/− mice and leptin-deficient Lep^ob/Lep^ob mice. AK009710 mRNA was expressed at approximately 10-fold lower levels in both of these models compared to wild-type mice (WT) (FIG. 3B). […]

Row | Molecule | phosphorylation of Erk1 [1] | phosphorylation of Erk1 [2] | hepatic Enho1 (AK009710) mRNA expression (Lep^ob/Lep^ob mice)
1 | Enho1^34-76: synthetic peptide corresponding to amino acids 34 through 76 of SEQ ID NO:2, the mouse protein; secreted portion of Enho1 (CHSRSADVDSLSESSPNSSPGPCPEKAPPPQKPSHEGSYLLQP; mus sp.) | robust increase | robust increase | 
2 | leptin (protein, UniProt P41160 22-167, looked up, adipocytokine, injected into Lep^ob/Lep^ob mice) Leptin: VPIQKVQDDTKTLIKTIVTRINDISHTQSVSAKQRVTGLDFIPGLHPILSLSKMDQTLAVYQQVLTSLPSQNVLQIANDLENLRDLLHLLAFSKSCSLPQTSGLQKPESLDGVLEASLYSTEVVALSRLQGSLQDILQQLDVSPEC |  |  | significantly increased
